Where a SMILES comes first, the peptide text is derived from it. Where no end group is shown, it is not given here. [ ]: non-standard residue; d: D form. The star is where a group is joined. Tle = CC(C)(C)[C@H](N)C(=O)O; Octanoyl = CCCCCCCC(=O)*; Dap = NC[C@H](N)C(=O)O; Sar = CNCC(=O)O

Here are results for 10 molecules from PMC8709388, “In Search of Small Molecules That Selectively Inhibit MBOAT4” (Molecules, 2021).

One data set deals with T1, mouse GOAT (Mus musculus, UniProt P0C7A3).
T1 construct: made in house; host or cells: sf9 insect cells (baculovirus, pFastBac1-mouseGOAT); total membrane fraction, not purified
T1 sequence (P0C7A3 1-435): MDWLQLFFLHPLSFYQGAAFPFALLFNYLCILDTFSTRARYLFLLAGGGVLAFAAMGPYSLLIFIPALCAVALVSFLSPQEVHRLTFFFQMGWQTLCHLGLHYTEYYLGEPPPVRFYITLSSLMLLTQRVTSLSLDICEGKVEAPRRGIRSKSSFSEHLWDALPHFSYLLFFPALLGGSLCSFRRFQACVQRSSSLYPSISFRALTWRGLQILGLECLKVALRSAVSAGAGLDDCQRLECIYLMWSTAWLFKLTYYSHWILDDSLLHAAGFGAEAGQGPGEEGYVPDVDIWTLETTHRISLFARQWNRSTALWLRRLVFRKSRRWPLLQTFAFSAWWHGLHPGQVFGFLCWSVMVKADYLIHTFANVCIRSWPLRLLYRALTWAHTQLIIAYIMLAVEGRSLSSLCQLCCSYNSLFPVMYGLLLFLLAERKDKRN
The data set is described as follows: Acyltransferase assay: inhibition of proghrelin octanoylation by GOAT in sf9 membrane fractions. It is filed as biochemical. The note with it: for GOAT inhibition in vitro (in words): membrane fractions; for IC50: read-out: IC50 (GOAT, membrane fraction, in-house). How it is done: pFastBac1-mouseGOAT and pGEX-GST-proGhrelin8His plasmid encoding for mouse proghrelin, fused to GST with TEV cleavage site to release proghrelin moiety, was a kind gift from the Brown and Goldstein laboratory. The BL21Gold E. coli chemically competent cells were transformed with the pGEX-GST-proGhrelin8His plasmid and selected on agar plates with ampicillin. A few colonies were used to inoculate 50 mL LB, and cultures were grown overnight at 37 °C. The next morning, 10 mL of overnight culture was used to inoculate 1L LB. A total of 4 flasks with 1L LB each were inoculated with 10 mL of the overnight culture, and bacterial cultures were grown at 37 °C until they reached OD600 ~ 0.6. The cultures were chilled on ice for 30 min and then 0.25 mM of IPTG was added to each culture. The cultures were then moved back to a shaker set to 18 °C and incubated overnight. Cells were harvested and resuspended in 200 mL buffer containing 25 mM Tris-HCl pH 8.0, 150 mM NaCl, 1 mM EDTA and 0.5 mg/mL lysozyme. The cell suspension was sonicated, and cell debris was removed by centrifugation. The soluble fraction was passed through glutathione resin by gravity. The resin was washed with 75 mL of lysis buffer without lysozyme. The GST-proGhrelin8His protein was eluted with lysis buffer without lysozyme, supplemented with 15 mM reduced glutathione, GSH. About 50 mg of target protein, as evaluated by SDS-PAGE, was eluted. The eluate was supplemented with 1 mM DTT and about 7.5 mg of recombinant GST-TEV protease (see below) was added. The solution was incubated at 16 °C overnight to allow complete release of proghrelin8His from GST. Prior to Ni-NTA chromatography, 5 mM CaCl2 was added, and the solution was spun down at 4000× g for 10 min. After elution from Ni-NTA resin, protein solution was dialyzed against buffer containing 10 mM Tris-HCl pH 8.5, 50 mM NaCl, 10% glycerol and 0.01% CHAPS using 3 kDa cutoff membrane with 3 buffer exchanges. The protein was quantified by absorbance at A280 and qualified by SDS-PAGE.
The baculovirus expression of mouse GOAT. DH10Bac E. coli strain (ThermoFisher, Waltham, MA, USA) was transformed with pFastBac1-mouseGOAT plasmid, and Bacmid DNA from 12 white colonies was analyzed by DNA sequencing and PCR reaction. All clones were transfected to sf9 cells and level of mGOAT expression was compared between clones from cells producing P2. The clone with the highest mGOAT expression level was used to produce P3. For membrane isolation, sf9 cells were seeded at 2–4 × 10^6 /mL in total 1 L volume of sf-900 serum-free medium (ThermoFisher) and infected with P3 virus. At day 2 post-infection, cells were harvested and resuspended in 40 mL of buffer containing 50 mM NaPi pH 7.2, 150 mM NaCl, 1 mM EDTA, 100 μM bis (4-nitrophenyl) phosphate, 2.5 μg/mL aprotinin, 10 μg/mL leupeptin, 10 μg/mL pepstatin A. Cell suspension was briefly sonicated and cell debris was removed by centrifugation at 3000× g for 10 min. Membrane fraction was collected from supernatant by centrifugation at 100,000× g for 1 h. Membrane pellet was resuspended in storage buffer (50 mM NaPi pH 7.2, 150 mM NaCl and 10% glycerol) and kept at −80 °C. Acyltransferase assay: The assay conditions included per 50 μL reaction: 50 μg of total sf9 membranes, various (for modality experiment) or fixed (for IC50) concentrations of recombinant proghrelin8His peptide and various concentrations of tested compound (for IC50), 100 μM palmitoyl CoA, 50 mM HEPES pH 7.0 and 1 μM [^3H] octanoyl CoA (~5.5 dpm/fmol—American Radioactive Chemicals). After incubation of the reaction mixture at 37C for 10 min, tubes were placed on ice and 10 μL of 1M HCl was added to each tube. Following the addition of 740 μL of cold quench buffer (50 mM NaPi pH 7.4, 10 mM Imidazole, 150 mM NaCl, 100 μM bis (4-nitrophenyl) phosphate, 1 mM phenylmethylsulfonyl fluoride and 0.1% Triton), 0.2 mL of 50% Ni-NTA slurry was added to each reaction. […]

The next data set relates to GOAT. As to conditions: cited from earlier work.
The nature of another data set: Pharmacokinetics in mice. It is filed as in vivo.
[1] abbreviates: sf9 membranes containing mouse GOAT, [3H]octanoyl CoA, proghrelin8His.

Turning to “N-(((3S,6S,9S)-9-(2-aminoacetamido)-3-benzyl-10,10-dimethyl-5,8-dioxo-1,11-dioxa-4,7-diazacyclopentadec-13-en-6-yl)methyl)octanamide [17a]”, the “mode of GOAT inhibition” value on mouse GOAT (reaction rates at varied substrate concentrations, fixed inhibitor concentration) is recorded as “competing for the peptide substrate”.
As to `CCCCOCC(=O)N1CCC(/C=C\c2c(C)nc3nonc3c2N)CC1` [compound 25, (Z)-1-(4-(2-(7-amino-5-methyl-[1,2,5]oxadiazolo[3,4-b]pyridin-6-yl)vinyl)piperidin-1-yl)-2-butoxyethan-1-one], the “GOAT inhibition in vitro (in words)” value on mouse GOAT is “significantly impaired”. Further, the IC50 at mouse GOAT (setting [1]) is 440 nM.
With `C[C@H](NC(=O)c1ccnn1C)C(=O)N1CCC(CCCc2cc(N)c3nonc3n2)CC1` [compound 35, (S)-N-(1-(4-(3-(7-amino-[1,2,5]oxadiazolo[3,4-b]pyridin-5-yl)propyl)pip-eridin-1-yl)-1-oxopropan-2-yl)-1-methyl-1H-pyrazole-5-carboxamide], the “GOAT inhibition in vitro (in words)” value on mouse GOAT is on record as “significantly impaired”. On mouse GOAT (setting [1]), the “IC50 (GOAT, membrane fraction, in-house)” value is “inactive”.
As for `CCCCCCCC(=O)NC[C@H](NC(=O)[C@@H](NC(=O)CNC)C(C)(C)C)C(=O)N[C@@H](Cc1ccccc1)C(N)=O` [compound 8] (H-[Sar][Tle][Dap](Octanoyl)F-NH2), the IC50 on mouse GOAT (setting [1]) was 14 nM.
As for `CCCCCCCC(=O)NC[C@H](NC(=O)[C@@H](NC(=O)CNC)C(C)(C)C)C(N)=O` [compound 12] (H-[Sar]-[Tle]-[Dap](Octanoyl)-NH2), at mouse GOAT, the “GOAT inhibition in vitro (in words)” value is “inactive”. On mouse GOAT (setting [1]), the IC50 was more than 1000 nM.
Turning to `O=C(O)c1ccc2oc(SCc3ccc(Cl)cc3Cl)nc2c1` [compound 7], the “mode of GOAT inhibition” value in the data set with GOAT was “competed at the CoA site on GOAT”.
For `CCCCCCCC(=O)NC[C@H](NC(=O)[C@@H](NC(=O)CNC)C(C)(C)C)C(=O)N[C@@H](Cc1ccccc1)C(=O)N[C@@H](CC(C)C)C(=O)N[C@@H](CO)C(=O)N1CCC[C@H]1C(N)=O` [compound 15] (H-[Sar][Tle][Dap](Octanoyl)FLSP-NH2), the IC50 on mouse GOAT (setting [1]) came to 96 nM.
On to `CCCCCCCC(=O)NC[C@H](NC(=O)[C@@H](NC(=O)CNC)C(C)(C)C)C(=O)N[C@@H](Cc1ccccc1)C(=O)N[C@@H](CC(C)C)C(=O)N[C@@H](CO)C(N)=O` [compound 14] (H-[Sar][Tle][Dap](Octanoyl)FLS-NH2), for which, on mouse GOAT (setting [1]), the IC50 is 62 nM.
For `CCCCCCCC(=O)NC[C@H](NC(=O)[C@@H](NC(=O)CNC)C(C)(C)C)C(=O)N[C@@H](Cc1ccccc1)C(=O)N[C@@H](CC(C)C)C(N)=O` [compound 13] (H-[Sar][Tle][Dap](Octanoyl)FL-NH2), in the data set “Pharmacokinetics in mice”, the oral bioavailability entry is “low” and the pharmacokinetics result is recorded as “poor”. In addition, the IC50 at mouse GOAT (setting [1]) worked out at 50 nM.
“1: GOAT reaction product, acyl ghrelin, 28-residue lipopeptide octanoylated at Ser3 (GSS(Octanoyl)FLSPEHQRVQQRKESKKPPAKLQPR; UniProt Q9UBU3 24-51, looked up) [compound 1]”: the “GOAT inhibition (in words)” value in the data set with GOAT was “weakly inhibited”.
